Reference: patent US20250017907A1, “METHOD FOR PREVENTING AND/OR TREATING LIVER FIBROSIS BY USING 6-METHOXYBENZOXAZOLINONE AND COIX LACHRYMA-JOBI L. EXTRACT COMPRISING 6-METHOXYBENZOXAZOLINONE” (Taichung District Agricultural Research and Extension …, priority 2023, published 2025)

Tests used:
[1] = test system: TGF-β/SMAD signaling pathway; experiment: Western blot of TGF-β/SMAD signaling pathway proteins; type: cell-based, rat; conditions: HSC-T6, TGF-β1 10 ng/mL, CX 10-100 μM
Procedure: The procedure of cell cultures is as follows. HSC-T6 cell is an immortalized cell line isolated from transformed SV40 large T-antigen transformed primary stellate cells of male Sprague-Dawley rats. HSC-T6 cells were maintained in Dulbecco's Modified Eagle Medium (DMEM, Sigma-Aldrich, USA) containing 8% fetal bovine serum (FBS, HyClone, USA), 100 U/mL of penicillin, and 100 μg/mL of streptomycin (Gibco, USA).
For hepatic stellate cell (HSC) activation, cells were cultured for 24 h and then replaced with serum-free medium for 24 h, after that, treated with transforming growth factor beta 1 (TGF-β1) (10 ng/mL) in the presence or absence of CX (10-100 μM) or adlay leaf, root, and seed extracts (25 and 50 μg/mL) for 24 h, or 30 min for intracellular signal pathways.
The procedure of Western blot analysis is as follows. Cells were lysed in RIPA buffer with protease inhibitor and then centrifuged at 4° C., 12000 rpm for 10 min. Collected the supernatant and quantified the total protein concentration to 50 μg. After heating at 95° C. for 10 min, the protein samples were separated by SDS-PAGE gel, transferred to PVDF membrane, followed by blocking with 6% milk, incubated with primary antibodies at 4° C., overnight and secondary antibodies at room temperature for 1 h. Blot images were visualized on Amersham Imager 680 (Cytiva, USA) with ECL agent (GeneDireX, USA).

[2] = test system: TAA-induced liver fibrotic C57BL/6J mice; experiment: Oxidative stress indicator tests in liver (SOD, CAT, GSH, MDA); type: in vivo; conditions: 6 weeks, vs TAA group
Procedure: (§1) For tests of CX, mice were randomly divided into the following four groups (n=8, per group): (1) NT group, (2) TAA group (200 mg/kg), (3) CX group (CX20, 20 mg/kg), and (4) CX group (CX50, 50 mg/kg). NT group received pure saline, and other groups intraperitoneally injected with TAA dissolved into saline thrice a week. Moreover, NT group and TAA group also received 5% propylene glycol, while CX groups received CX dissolved into 5% propylene glycol (prepared in 0.9% saline) by oral gavage once per day.
To examine the effects of CX on liver fibrosis, this example established a TAA-induced liver fibrotic C57BL/6J mouse model. FIG. 6 is a schematic diagram of animal experiment design in 6-methoxybenzoxazolinone (6-MBOA) (CX) groups. For animal experiments, 6-week-old C57BL/6J mice were randomly divided into four groups including NT, TAA, CX20 (TAA+20 mg/kg CX), CX50 (TAA+50 mg/kg CX). (n=8 per group). Mice were given intraperitoneal injection of TAA thrice a week to induce liver fibrosis; they also received CX or the vehicle by oral gavage once per day. At the end of animal tests, mice were sacrificed at 12 weeks of age. Six-week-old mice were randomly divided into four groups, namely NT, TAA, CX20 and CX50 (FIG. 6). Among these groups, only the NT group was oral gavaged and administered with vehicle, the TAA group was oral gavaged with vehicle and administered with TAA, and the CX groups were oral gavaged with CX and administered with TAA. Oral gavage was performed once a day while intraperitoneal injection was given thrice a week; both oral gavage and intraperitoneal injection were continuously administered for six weeks. After that, the mice were sacrificed, and their liver tissues and serum were collected for subsequent analyses.
The procedure of oxidative stress indicator tests is as follows. The enzyme activity of catalase (CAT) and superoxide dismutase (SOD), the content of malondialdehyde (MDA), and the concentration of glutathione (GSH) in tissue were tested to examine changes in oxidative stress levels in TAA-induced liver fibrotic mice. […] All of the kits were commercial products, the working protocol followed the manufacturer's instructions. Briefly, the liver tissue was homogenized in ice-cold buffer and centrifuged at 4° C., then collected supernatant for analysis, finally, read the absorbance of samples with ELISA reader (TECAN, Switzerland).

[3] = test system: TGF-β1-activated HSC-T6 cells; experiment: Wound healing assay; type: cell-based, rat
Procedure: The procedure of wound healing assay is as follows. HSC-T6 cells were seeded on the 6-well plates for 24 h, scraped monolayer cells with a 200 μL pipette tip and washed off non-adherent cells by PBS, changed serum-free medium for 24 h, then treated with TGF-β1 and CX for 0, 24, and 48 h.

[4] = test system: TAA-induced liver fibrotic C57BL/6J mice; experiment: Serum biochemical analysis (liver function and nutrient metabolism); type: in vivo; conditions: CX groups (20 and 50 mg/kg oral, 6 weeks); vs TAA group
Procedure: For tests of adlay extracts, mice were randomly divided into the following seven groups (n=6, per group): (1) No treatment group (NT, normal diet), (2) Thioacetamide group (TAA, 200 mg/kg, normal diet), (3) 10% adlay seed powder (ASP) group, (4) 1% adlay leaf powder (ALP) group, (5) 1% adlay seed polysaccharide (ASPS) group, (6) 0.025% adlay seed ethanolic extract (ASE) group and (7) 0.1% ASE group. NT group received pure saline, and other groups intraperitoneally injected with TAA dissolved into saline thrice a week.
as §1
At the end of the experiment, the mice were sacrificed. Serum was obtained from the whole blood of mice after centrifuging and stored at −80° C., and the liver tissues were collected and used for the tissue histological staining.
The procedure of biochemical analysis is as follows. The levels of serum alanine aminotransferase (ALT), aspartate aminotransferase (AST), total bilirubin (TBIL), alkaline phosphatase (ALP), total cholesterol (TC), total glyceride (TG), and glucose were measured with the chemistry analyzer. Briefly, after centrifuging the whole blood from mice, collected the serum, dropped the serum at the tested chips for analysis with an Automated Clinical Chemistry Analyzer (Fuji, Japan).

With COc1ccc2[nH]c(=O)oc2c1 [CX, 6-methoxybenzoxazolinone] the “NOX4 expression (Western blot)” value [1] was “decreased”, the “SNAIL1/2 expression (Western blot)” value [1] was “decreased” and the “TWIST1/2 expression (Western blot)” value [1] was “decreased”. The “ZEB1 expression (Western blot)” value [1] was “decreased”, the “TGF-β1-stimulated SMAD2 phosphorylation (p-SMAD2, Western blot)” value ([1]; 30 min) was “decreased with increasing dose” and the “TGF-β1-stimulated SMAD3 phosphorylation (p-SMAD3, Western blot)” value ([1]; 30 min) was “decreased with increasing dose”. The “liver CAT activity” value ([2]; CX20: 20 mg/kg oral) was “increased”, the “liver GSH content” value ([2]; CX20: 20 mg/kg oral) was “increased” and the “liver MDA content” value ([2]; CX20: 20 mg/kg oral) was “decreased”. The “liver CAT activity” value ([2]; CX50: 50 mg/kg oral) was “increased”, the “liver GSH content” value ([2]; CX50: 50 mg/kg oral) was “increased” and the “liver MDA content” value ([2]; CX50: 50 mg/kg oral) was “decreased”. The “liver SOD activity” value ([2]; CX50: 50 mg/kg oral) was “significantly increased”, the “TGF-β1-induced wound closure of 24 h” value ([3]; HSC-T6, CX at a dose of 100 μM) was “significantly reduced” and the “TGF-β1-induced wound closure of 48 h” value ([3]; HSC-T6, CX at a dose of 20-100 μM) was “reduced”. The “changes in serum TC level caused by TAA” value [4] was “significantly reduced”, the “changes in serum TG level caused by TAA” value [4] was “significantly reduced” and the “changes in serum glucose level caused by TAA” value [4] was “significantly reduced”. The “serum ALP” value [4] was “decreased significantly”, the “serum ALT” value [4] was “decreased significantly” and the “serum AST” value [4] was “decreased significantly”. For the same molecule, the “serum TBIL” value [4] was “decreased significantly”.
